Calls of active or inactive are those of the source. How the calls were made is not given here.
Tested on: CCRIS mutagenicity, Ames/micronucleus/aberration tests
Experiment: CCRIS mutagenicity studies
[1] = Test System: AMES SALMONELLA TYPHIMURIUM, Strain/Indicator: TA98, Metabolic Activation: NONE, Method: STANDARD PLATE
[2] = Test System: AMES SALMONELLA TYPHIMURIUM, Strain/Indicator: TA100, Metabolic Activation: NONE, Method: STANDARD PLATE
[3] = Test System: UDS RAT HEPATOCYTES, Strain/Indicator: THY INCORP, Metabolic Activation: NONE, Method: AUTORADIOGRAPHY
[4] = Test System: AMES SALMONELLA TYPHIMURIUM, Strain/Indicator: TA100, Metabolic Activation: NONE, Method: PREINCUBATION

NCCc1cnc[nH]1
mutagenic call (Test System: AMES SALMONELLA TYPHIMURIUM, Strain/Indicator: TA97, Metabolic Activation: NONE, Method: STANDARD PLATE): inactive; negative
mutagenic call (Test System: AMES SALMONELLA TYPHIMURIUM, Strain/Indicator: TA97, Metabolic Activation: RAT, LIVER, S-9, AROCLOR 1254, Method: STANDARD PLATE): inactive; negative
mutagenic call [1]: inactive; negative
mutagenic call (Test System: AMES SALMONELLA TYPHIMURIUM, Strain/Indicator: TA98, Metabolic Activation: RAT, LIVER, S-9, AROCLOR 1254, Method: STANDARD PLATE): inactive; negative
mutagenic call [2]: inactive; negative
mutagenic call (Test System: AMES SALMONELLA TYPHIMURIUM, Strain/Indicator: TA100, Metabolic Activation: RAT, LIVER, S-9, AROCLOR 1254, Method: STANDARD PLATE): inactive; negative
mutagenic call (Test System: AMES SALMONELLA TYPHIMURIUM, Strain/Indicator: TA102, Metabolic Activation: NONE, Method: STANDARD PLATE): inactive; negative
mutagenic call (Test System: AMES SALMONELLA TYPHIMURIUM, Strain/Indicator: TA102, Metabolic Activation: RAT, LIVER, S-9, AROCLOR 1254, Method: STANDARD PLATE): inactive; negative
mutagenic call [3]: inactive; negative

Cc1c2cc(CO)ccc2nc2c1c1c(c3ccccc32)O1
mutagenic call [2]: inactive; negative

CCCC/C=C/C=O
mutagenic call [4]: inactive; negative
mutagenic call (Test System: AMES SALMONELLA TYPHIMURIUM, Strain/Indicator: TA100, Metabolic Activation: NONE, Method: PREINCUBATION (THREEFOLD CELL DENSITY)): active; positive
mutagenic call (Test System: AMES SALMONELLA TYPHIMURIUM, Strain/Indicator: TA100, Metabolic Activation: RAT, LIVER, S-9, AROCLOR 1254, Method: PREINCUBATION): inactive; negative
mutagenic call (Test System: AMES SALMONELLA TYPHIMURIUM, Strain/Indicator: TA100, Metabolic Activation: RAT, LIVER, S-9, AROCLOR 1254, Method: PREINCUBATION (THREEFOLD CELL DENSITY)): inactive; negative
mutagenic call (Test System: CHINESE HAMSTER V-79, Strain/Indicator: V-79/6-THIOGUANINE, Metabolic Activation: NONE, Method: STANDARD PLATE): active; positive
mutagenic call (Test System: CHINESE HAMSTER V-79, Strain/Indicator: V-79/OUABAIN, Metabolic Activation: NONE, Method: STANDARD PLATE): active; positive

CN(C(=O)CCl)c1snc2ccccc12
mutagenic call [1]: inactive; negative
mutagenic call (Test System: AMES SALMONELLA TYPHIMURIUM, Strain/Indicator: TA98, Metabolic Activation: S-9, Method: STANDARD PLATE): inactive; negative
mutagenic call [2]: inactive; negative
mutagenic call (Test System: AMES SALMONELLA TYPHIMURIUM, Strain/Indicator: TA100, Metabolic Activation: S-9, Method: STANDARD PLATE): inactive; negative
mutagenic call (Test System: AMES SALMONELLA TYPHIMURIUM, Strain/Indicator: TA1535, Metabolic Activation: NONE, Method: STANDARD PLATE): inactive; negative
mutagenic call (Test System: AMES SALMONELLA TYPHIMURIUM, Strain/Indicator: TA1535, Metabolic Activation: S-9, Method: STANDARD PLATE): inactive; negative
mutagenic call (Test System: AMES SALMONELLA TYPHIMURIUM, Strain/Indicator: TA1537, Metabolic Activation: NONE, Method: STANDARD PLATE): inactive; negative
mutagenic call (Test System: AMES SALMONELLA TYPHIMURIUM, Strain/Indicator: TA1537, Metabolic Activation: S-9, Method: STANDARD PLATE): inactive; negative

CC(=O)O[C@]1(C)C(=O)OC/C2=C/CN(C)CC[C@@H](OC(=O)C3(C[C@H]1C)O[C@@H]3C)C2=O (stereo not given in full)
mutagenic call [3]: active; positive

CNCc1ccc(CSCCNC(=NCC(O)c2ccc(O)cc2)NS(C)(=O)=O)o1 (stereo not given)
mutagenic call (Test System: AMES SALMONELLA TYPHIMURIUM, Strain/Indicator: TA98, Metabolic Activation: NONE, Method: PREINCUBATION): inactive; negative
mutagenic call (Test System: AMES SALMONELLA TYPHIMURIUM, Strain/Indicator: TA98, Metabolic Activation: RAT LIVER S-9, PHENOBARBITAL AND 5,6-BENZOFLAVONE, Method: PREINCUBATION): inactive; negative
mutagenic call [4]: inactive; negative
mutagenic call (Test System: AMES SALMONELLA TYPHIMURIUM, Strain/Indicator: TA100, Metabolic Activation: RAT LIVER S-9, PHENOBARBITAL AND 5,6-BENZOFLAVONE, Method: PREINCUBATION): inactive; negative
mutagenic call (Test System: AMES SALMONELLA TYPHIMURIUM, Strain/Indicator: TA1535, Metabolic Activation: NONE, Method: PREINCUBATION): inactive; negative
mutagenic call (Test System: AMES SALMONELLA TYPHIMURIUM, Strain/Indicator: TA1535, Metabolic Activation: RAT LIVER S-9, PHENOBARBITAL AND 5,6-BENZOFLAVONE, Method: PREINCUBATION): inactive; negative
mutagenic call (Test System: AMES SALMONELLA TYPHIMURIUM, Strain/Indicator: TA1537, Metabolic Activation: NONE, Method: PREINCUBATION): inactive; negative
mutagenic call (Test System: AMES SALMONELLA TYPHIMURIUM, Strain/Indicator: TA1537, Metabolic Activation: RAT LIVER S-9, PHENOBARBITAL AND 5,6-BENZOFLAVONE, Method: PREINCUBATION): inactive; negative
mutagenic call (Test System: E.COLI, Strain/Indicator: WP2 UVRA, Metabolic Activation: NONE, Method: PREINCUBATION): inactive; negative
mutagenic call (Test System: E.COLI, Strain/Indicator: WP2 UVRA, Metabolic Activation: RAT LIVER S-9, PHENOBARBITAL AND 5,6-BENZOFLAVONE, Method: PREINCUBATION): inactive; negative

— PubChem BioAssay AID1259407 (Chemical Carcinogenesis Research Information System (CCRIS), 2018)
